The source of these data is BindingDB's records for doi:10.1021/cb400075f (Boehringer Ingelheim (Canada), 2013).

SMILES strings stand for the structures.

In assay [1] the target is T1, Gag-Pol polyprotein (Human immunodeficiency virus type 1 group M subtype B (isolate NY5), UniProt P12497). Description: Capsid Assembly Assay.
Assay [2] addresses T1, Gag-Pol polyprotein. Description: Capsid Assembly Assay. An excerpt:
In vitro capsid assembly assay (CAA) was used in a HTS to identify potential inhibitors of capsid assembly.
This is another data set of the same source.

For the compound `CN(C)CCCn1c(-c2c[nH]nc2-c2ccccc2)nc2cc(-c3ccc(C(=O)O)cc3)ccc21` [Benzimidazole Inhibitor, 1], the dissociation constant (Kd) on Gag-Pol polyprotein [1] is 43000 nM. In addition, on Gag-Pol polyprotein [2], inhibition was half-maximal at 6100 nM (IC50).

Take `CN(C)CCCn1c(-c2c[nH]nc2-c2ccc(C(F)(F)F)cc2)nc2cc(-c3ccc(C(=O)O)cc3)ccc21` [Benzimidazole Inhibitor, 2]: on Gag-Pol polyprotein [1], the dissociation constant (Kd) turned out to be 4300 nM. At Gag-Pol polyprotein [2], the 50% inhibitory concentration (IC50) was 1200 nM.

At Gag-Pol polyprotein [1], `O=C(O)c1ccc(-c2ccc3c(c2)nc(-c2c[nH]nc2-c2ccc(C(F)(F)F)cc2)n3CCCn2ccnc2)cc1` [Benzimidazole Inhibitor, 3] had a Kd of 8000 nM. In addition, at Gag-Pol polyprotein [2], the IC50 is 1400 nM.

On Gag-Pol polyprotein [2], `O=C(O)c1ccc(-c2ccc3c(c2)nc(-c2c[nH]nc2-c2cccc(Cl)c2)n3CCCn2ccnc2)cc1` [Benzimidazole Inhibitor, 4] had an IC50 of 1200 nM.

On Gag-Pol polyprotein [2], `O=C(O)c1ccc(-c2ccc3c(c2)nc(-c2c[nH]nc2-c2ccc(C(F)(F)F)cc2)n3CCCN2CCCCC2)cc1` [Benzimidazole Inhibitor, 5] yielded an IC50 of 670 nM.

Compound `O=C(O)c1ccc(-c2ccc3c(c2)nc(-c2c[nH]nc2-c2ccc(Cl)c(Cl)c2)n3CCCNC2CCCCC2)cc1` [Benzimidazole Inhibitor, 6] had a Kd on Gag-Pol polyprotein [1] of 500 nM. In addition, on Gag-Pol polyprotein [2], the IC50 came out at 350 nM.

In the case of `COCCN=CC1C(=O)N(C)c2ccc(C(F)(F)F)cc2N(c2ccccc2)C1=O` (stereo unspecified) [Benzodiazepine Inhibitor, 7], 890 nM corresponded to half-maximal inhibition at Gag-Pol polyprotein [2] (IC50).

One may read the Kd as the equilibrium constant for the complex coming apart. High values mean weaker binding, low ones tighter binding. The IC50 is the concentration that gives 50% inhibition. Low readings indicate greater potency, high ones weaker potency.
